Literature values in patent US20090285770A1, “Topical Compositions for Promoting Homeostasis of the Skin” (L'Oreal, priority 2005, published 2009).
Like-named read-outs stand apart in the source and are kept apart here. Ends that are not written are not given here.

Experiments:
[1] = system: P1 integrins; details: applied to skin ex vivo
[2] = system: β1 integrins; details: cells in culture
[3] = system: β1 integrins
[4] = system: (6 integrins); details: fibroblasts and keratinocytes in culture
[5] = system: α2, α3, α6, αv and β1 integrins; details: keratinocytes in culture or reconstructed skins

## GPQGPQ [COLLAXYL, collagen mimetic hexapeptide sold by Vincience]
[1]
  expression of P1 integrins: stimulates the expression of P1 integrins

## KLDAPT [VINCI 02, fibronectin mimetic hexapeptide sold by Vincience]
[2]
  expression of β1 integrins: stimulates the expression of β1 integrins

## RDFTKATNIRLRFLR [VINCI 01, laminin mimetic oligopeptide sold by Vincience]
[3]
  expression of β1 integrins: stimulates the expression of β1 integrins

## SERILESINE
[4]
  expression of (6 integrins): increasing the expression of (6 integrins

## copper gluconate
[5]
  expression of integrins, in particular the α2, α3, α6, αv and β1 integrins: capable of increasing the expression of integrins

## manganese gluconate
[5]
  expression of integrins, in particular the α2, α3, α6, αv and β1 integrins: capable of increasing the expression of integrins

## zinc gluconate
[5]
  expression of integrins, in particular the α2, α3, α6, αv and β1 integrins: capable of increasing the expression of integrins
